Source: ChEMBL document CHEMBL3885881, “DrugMatrix”

Species: Rattus norvegicus
Experiment: DrugMatrix - Regimen: Daily Repeat
Assay type: toxicity, organism-based, Sprague-Dawley
Design: regimen Daily Repeat, gender Male, age 6-8 weeks
Settings: in vivo, po, route oral GAVAGE, […]; for ABSOLUTE BASOPHIL / ABSOLUTE EOSINOPHIL / ABSOLUTE LYMPHOCYTE / ABSOLUTE MONOCYTE / ABSOLUTE SEGMENTED NEUTROPHIL / BASOPHIL / EOSINOPHIL / ERYTHROCYTE COUNT / HEMATOCRIT / HEMOGLOBIN / LEUKOCYTE COUNT / LYMPHOCYTE / MEAN CORPUSCULAR HEMOGLOBIN / MEAN CORPUSCULAR HEMOGLOBIN CONCENTRATION / MEAN CORPUSCULAR VOLUME / MONOCYTE / NEUTROPHIL / NUCLEATED RED BLOOD CELLS / PLATELET COUNT: tissue Blood; for ALANINE AMINOTRANSFERASE / ALKALINE PHOSPHATASE / ASPARTATE AMINOTRANSFERASE / BLOOD UREA NITROGEN / CARBON DIOXIDE / CHLORIDE / CHOLESTEROL / CREATINE PHOSPHOKINASE / CREATININE / GLUCOSE / LACTATE DEHYDROGENASE / LIPASE / PHOSPHORUS / POTASSIUM / SODIUM / TOTAL BILIRUBIN / TOTAL PROTEIN / URIC ACID: tissue Plasma
[1] = 0 mg/kg, 72 h, dose level Control, time 3 day
[2] = 0 mg/kg, dose level Control, time 7 day
[3] = 100 mg/kg, 72 h, dose level Low, time 3 day

Cc1ccc(C)c(OCCCC(C)(C)C(=O)O)c1 [GEMFIBROZIL]
ABSOLUTE BASOPHIL [1]: 0 CELLS/uL | ABSOLUTE EOSINOPHIL [1]: 37.33 CELLS/uL | ABSOLUTE LYMPHOCYTE [1]: 6295.33 CELLS/uL | ABSOLUTE MONOCYTE [1]: 122.17 CELLS/uL | ABSOLUTE SEGMENTED NEUTROPHIL [1]: 861.83 CELLS/uL | BASOPHIL [1]: 0% | EOSINOPHIL [1]: 0.5% | ERYTHROCYTE COUNT [1]: 5.2 x10E6/uL | HEMATOCRIT [1]: 32.58% | HEMOGLOBIN [1]: 12.95 G/DL | LEUKOCYTE COUNT [1]: 7.32 x10E3/uL | LYMPHOCYTE [1]: 86% | MEAN CORPUSCULAR HEMOGLOBIN [1]: 24.93 pg | MEAN CORPUSCULAR HEMOGLOBIN CONCENTRATION [1]: 39.77 G/DL | MEAN CORPUSCULAR VOLUME [1]: 62.65 fL | MONOCYTE [1]: 1.67% | NEUTROPHIL [1]: 11.83% | NUCLEATED RED BLOOD CELLS [1]: 0 /100WBC | PLATELET COUNT [1]: 1029 x10E3/uL | ALANINE AMINOTRANSFERASE [1]: 63.67 u/L | ALKALINE PHOSPHATASE [1]: 329.83 u/L | ASPARTATE AMINOTRANSFERASE [1]: 77.67 u/L | BLOOD UREA NITROGEN [1]: 18 mg/dL | CARBON DIOXIDE [1]: 29.67 mmol/L | CHLORIDE [1]: 102.67 MEQ/L | CHOLESTEROL [1]: 64.5 mg/dL | CREATINE PHOSPHOKINASE [1]: 178.67 u/L | CREATININE [1]: 0.18 mg/dL | GLUCOSE [1]: 163.83 mg/dL | LACTATE DEHYDROGENASE [1]: 75.83 u/L | LIPASE [1]: 10 u/L | PHOSPHORUS [1]: 8.28 mg/dL | POTASSIUM [1]: 4.79 MEQ/L | SODIUM [1]: 142.22 MEQ/L | TOTAL BILIRUBIN [1]: 0.22 mg/dL | TOTAL PROTEIN [1]: 5.78 G/DL | URIC ACID [1]: 0.87 mg/dL | ABSOLUTE BASOPHIL [2]: 0 CELLS/uL | ABSOLUTE EOSINOPHIL [2]: 19 CELLS/uL | ABSOLUTE LYMPHOCYTE [2]: 7803.5 CELLS/uL | ABSOLUTE MONOCYTE [2]: 117.83 CELLS/uL | ABSOLUTE SEGMENTED NEUTROPHIL [2]: 1093 CELLS/uL | BASOPHIL [2]: 0% | EOSINOPHIL [2]: 0.17% | ERYTHROCYTE COUNT [2]: 5.84 x10E6/uL | HEMATOCRIT [2]: 35.75% | HEMOGLOBIN [2]: 13.87 G/DL | LEUKOCYTE COUNT [2]: 9.03 x10E3/uL | LYMPHOCYTE [2]: 87.17% | MEAN CORPUSCULAR HEMOGLOBIN [2]: 23.78 pg | MEAN CORPUSCULAR HEMOGLOBIN CONCENTRATION [2]: 38.8 G/DL | MEAN CORPUSCULAR VOLUME [2]: 61.25 fL | MONOCYTE [2]: 1.17% | NEUTROPHIL [2]: 11.5% | NUCLEATED RED BLOOD CELLS [2]: 0 /100WBC | PLATELET COUNT [2]: 1098.67 x10E3/uL | ALANINE AMINOTRANSFERASE [2]: 66 u/L | ALKALINE PHOSPHATASE [2]: 291.83 u/L | ASPARTATE AMINOTRANSFERASE [2]: 80.5 u/L | BLOOD UREA NITROGEN [2]: 15.67 mg/dL | CARBON DIOXIDE [2]: 30 mmol/L | CHLORIDE [2]: 101.67 MEQ/L | CHOLESTEROL [2]: 69.67 mg/dL | CREATINE PHOSPHOKINASE [2]: 363.33 u/L | CREATININE [2]: 0.25 mg/dL | GLUCOSE [2]: 146.5 mg/dL | LACTATE DEHYDROGENASE [2]: 219.67 u/L | LIPASE [2]: 11.33 u/L | PHOSPHORUS [2]: 10.08 mg/dL | POTASSIUM [2]: 5.22 MEQ/L | SODIUM [2]: 144.67 MEQ/L | TOTAL BILIRUBIN [2]: 0.12 mg/dL | TOTAL PROTEIN [2]: 6.33 G/DL | URIC ACID [2]: 0.75 mg/dL | ABSOLUTE BASOPHIL [3]: 0 CELLS/uL | ABSOLUTE EOSINOPHIL [3]: 135 CELLS/uL | ABSOLUTE LYMPHOCYTE [3]: 14816.33 CELLS/uL | ABSOLUTE MONOCYTE [3]: 381.17 CELLS/uL | ABSOLUTE SEGMENTED NEUTROPHIL [3]: 1317.5 CELLS/uL | BASOPHIL [3]: 0% | EOSINOPHIL [3]: 0.67% | ERYTHROCYTE COUNT [3]: 5.65 x10E6/uL | HEMATOCRIT [3]: 35.43% | HEMOGLOBIN [3]: 14.12 G/DL | LEUKOCYTE COUNT [3]: 16.65 x10E3/uL | LYMPHOCYTE [3]: 89% | MEAN CORPUSCULAR HEMOGLOBIN [3]: 25.02 pg | MEAN CORPUSCULAR HEMOGLOBIN CONCENTRATION [3]: 39.85 G/DL | MEAN CORPUSCULAR VOLUME [3]: 62.8 fL | MONOCYTE [3]: 2.33% | NEUTROPHIL [3]: 8% | NUCLEATED RED BLOOD CELLS [3]: 0 /100WBC | PLATELET COUNT [3]: 1185.67 x10E3/uL | ALANINE AMINOTRANSFERASE [3]: 52.83 u/L | ALKALINE PHOSPHATASE [3]: 423.5 u/L | ASPARTATE AMINOTRANSFERASE [3]: 76.17 u/L | BLOOD UREA NITROGEN [3]: 14.67 mg/dL | CARBON DIOXIDE [3]: 31 mmol/L | CHLORIDE [3]: 101.5 MEQ/L | CHOLESTEROL [3]: 48 mg/dL | CREATINE PHOSPHOKINASE [3]: 304.5 u/L | CREATININE [3]: 0.2 mg/dL | GLUCOSE [3]: 145.83 mg/dL | LACTATE DEHYDROGENASE [3]: 103.67 u/L | LIPASE [3]: 11.17 u/L | PHOSPHORUS [3]: 11.08 mg/dL | POTASSIUM [3]: 6.55 MEQ/L | SODIUM [3]: 142.47 MEQ/L | TOTAL BILIRUBIN [3]: 0.2 mg/dL | TOTAL PROTEIN [3]: 5.9 G/DL | URIC ACID [3]: 1.3 mg/dL
